Inhibition and IC50 data for 2 compounds are collected here from patent publication EP4592286A1, “MACROCYCLIC NITROGEN-CONTAINING CROWN ETHER COMPOUND AND USE THEREOF AS PROTEIN KINASE INHIBITOR” (Artivila Biopharma, priority 2022, dated 2024).

The inhibition is the drop in the measured response relative to a control, in per cent. For orientation: IC50 means the midpoint of a concentration-inhibition curve.

What all share (assay type): biochemical
One assay has as its target T1, JAK3 (Homo sapiens, UniProt P52333).
T1 sequence (P52333 1-1124): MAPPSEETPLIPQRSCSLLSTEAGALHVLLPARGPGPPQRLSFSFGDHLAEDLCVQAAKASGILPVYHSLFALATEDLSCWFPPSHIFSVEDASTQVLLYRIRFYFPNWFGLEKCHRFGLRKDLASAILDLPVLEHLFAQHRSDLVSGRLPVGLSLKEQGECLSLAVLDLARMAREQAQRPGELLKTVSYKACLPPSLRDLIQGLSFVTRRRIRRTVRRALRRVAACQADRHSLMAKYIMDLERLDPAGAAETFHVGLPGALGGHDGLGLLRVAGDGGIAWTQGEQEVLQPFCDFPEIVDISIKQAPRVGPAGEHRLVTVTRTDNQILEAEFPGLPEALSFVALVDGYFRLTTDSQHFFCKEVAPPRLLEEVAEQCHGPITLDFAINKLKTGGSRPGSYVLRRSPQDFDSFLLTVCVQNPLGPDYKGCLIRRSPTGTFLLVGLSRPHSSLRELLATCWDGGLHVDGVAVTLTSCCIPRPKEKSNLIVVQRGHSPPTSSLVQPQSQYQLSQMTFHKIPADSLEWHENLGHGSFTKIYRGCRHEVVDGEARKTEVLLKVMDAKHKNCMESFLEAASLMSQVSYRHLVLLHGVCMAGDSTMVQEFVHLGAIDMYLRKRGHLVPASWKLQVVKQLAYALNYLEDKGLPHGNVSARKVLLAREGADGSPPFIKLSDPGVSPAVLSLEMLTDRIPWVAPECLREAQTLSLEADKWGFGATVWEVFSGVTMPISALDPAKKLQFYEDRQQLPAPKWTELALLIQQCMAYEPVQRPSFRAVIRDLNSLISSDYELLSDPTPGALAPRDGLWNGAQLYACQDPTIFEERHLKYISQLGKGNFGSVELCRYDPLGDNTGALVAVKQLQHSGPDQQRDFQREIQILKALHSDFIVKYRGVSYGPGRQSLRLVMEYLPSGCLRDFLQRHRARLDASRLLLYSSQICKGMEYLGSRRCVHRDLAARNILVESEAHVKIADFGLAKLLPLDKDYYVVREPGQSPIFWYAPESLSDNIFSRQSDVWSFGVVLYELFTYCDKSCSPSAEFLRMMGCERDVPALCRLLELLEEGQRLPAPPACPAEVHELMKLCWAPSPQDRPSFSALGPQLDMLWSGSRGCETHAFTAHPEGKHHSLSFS
Description: experiment of inhibiting kinase activity (Caliper mobility shift assay), JAK3. The note with it: for inhibition at 0.01 µM: at 10 nM; for inhibition at 0.01 µM / inhibition at 0.1 µM: read-out: inhibition rate JAK3; for inhibition at 0.1 µM: at 100 nM. An outline of the steps:
(§1)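 Inhibition is measured as reduced conversion of substrate by the kinase, separated by microfluidic mobility shift after a room-temperature reaction started with ATP/substrate following a 10-min compound preincubation. Test doses are 10 nM, 100 nM, or a 10-point 3-fold series from 10 µM.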

A further assay has as its target TYK2 (Homo sapiens, UniProt P29597). Put plainly: experiment of inhibiting kinase activity, TYK2. The note with it: read-out: inhibition rate TYK2; for inhibition at 0.01 µM: at 10 nM; for inhibition at 0.1 µM: at 100 nM. As for the experimental part:
The inhibition rates of tested compounds on JAK1, JAK2, JAK3, TYK2, CDK7, CDK9, EGFR (T790M) and LRRK2 kinases were measured. The test concentrations of the compounds were 10 nM and 100 nM, and the detection was performed by replicate wells. Alternatively, compounds were 3-fold serial diluted from 10 µM for 10 concentrations in replicate wells.

For another assay, the target named is CDK7 (Homo sapiens, UniProt P50613). Put plainly: experiment of inhibiting kinase activity (Caliper mobility shift assay), CDK7. The note with it: read-out: inhibition rate CDK7; for inhibition at 0.1 µM: at 100 nM. An outline of the steps:
as §1

TYK2, sequence (P29597 whole entry): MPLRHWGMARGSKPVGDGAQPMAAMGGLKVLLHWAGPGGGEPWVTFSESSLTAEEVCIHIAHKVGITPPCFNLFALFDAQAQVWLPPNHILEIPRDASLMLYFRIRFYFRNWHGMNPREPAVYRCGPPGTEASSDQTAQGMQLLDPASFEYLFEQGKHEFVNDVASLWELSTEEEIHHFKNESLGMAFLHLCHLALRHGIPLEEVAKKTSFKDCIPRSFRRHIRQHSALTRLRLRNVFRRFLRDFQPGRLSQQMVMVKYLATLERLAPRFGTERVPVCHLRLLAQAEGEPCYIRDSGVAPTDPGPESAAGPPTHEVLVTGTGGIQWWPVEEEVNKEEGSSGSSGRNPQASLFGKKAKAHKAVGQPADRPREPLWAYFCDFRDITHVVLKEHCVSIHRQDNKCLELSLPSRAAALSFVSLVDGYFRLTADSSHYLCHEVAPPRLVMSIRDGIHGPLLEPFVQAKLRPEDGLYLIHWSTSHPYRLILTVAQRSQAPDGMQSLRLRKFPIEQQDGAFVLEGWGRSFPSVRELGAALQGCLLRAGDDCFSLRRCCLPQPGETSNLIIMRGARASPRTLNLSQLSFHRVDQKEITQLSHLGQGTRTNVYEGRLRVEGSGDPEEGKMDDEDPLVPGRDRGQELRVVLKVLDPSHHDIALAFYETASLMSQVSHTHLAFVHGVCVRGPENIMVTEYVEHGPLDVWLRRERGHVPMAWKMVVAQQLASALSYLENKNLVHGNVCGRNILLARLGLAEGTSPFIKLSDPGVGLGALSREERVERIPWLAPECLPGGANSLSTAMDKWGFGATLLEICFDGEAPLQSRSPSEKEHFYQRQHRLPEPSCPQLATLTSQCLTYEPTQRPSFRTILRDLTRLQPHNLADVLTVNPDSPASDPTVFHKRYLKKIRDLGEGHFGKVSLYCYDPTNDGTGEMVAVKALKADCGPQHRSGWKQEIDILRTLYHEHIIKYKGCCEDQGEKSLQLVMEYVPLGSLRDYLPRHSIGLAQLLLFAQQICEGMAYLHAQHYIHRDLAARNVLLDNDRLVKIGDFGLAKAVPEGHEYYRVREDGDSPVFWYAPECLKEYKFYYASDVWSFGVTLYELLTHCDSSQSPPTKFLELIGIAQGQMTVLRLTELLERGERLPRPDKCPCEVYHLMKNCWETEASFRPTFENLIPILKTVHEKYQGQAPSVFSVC
CDK7, sequence (P50613 whole entry, species assumed): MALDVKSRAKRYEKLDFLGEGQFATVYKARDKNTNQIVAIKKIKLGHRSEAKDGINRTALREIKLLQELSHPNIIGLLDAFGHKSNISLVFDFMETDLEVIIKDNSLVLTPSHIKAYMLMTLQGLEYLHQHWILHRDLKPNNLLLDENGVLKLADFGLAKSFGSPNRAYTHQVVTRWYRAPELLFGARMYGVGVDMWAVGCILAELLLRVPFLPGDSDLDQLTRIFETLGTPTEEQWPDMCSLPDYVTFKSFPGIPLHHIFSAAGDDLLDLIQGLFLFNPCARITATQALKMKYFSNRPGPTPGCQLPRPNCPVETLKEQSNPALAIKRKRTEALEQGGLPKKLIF
CDK7, sequence (P51946 whole entry partner, species assumed): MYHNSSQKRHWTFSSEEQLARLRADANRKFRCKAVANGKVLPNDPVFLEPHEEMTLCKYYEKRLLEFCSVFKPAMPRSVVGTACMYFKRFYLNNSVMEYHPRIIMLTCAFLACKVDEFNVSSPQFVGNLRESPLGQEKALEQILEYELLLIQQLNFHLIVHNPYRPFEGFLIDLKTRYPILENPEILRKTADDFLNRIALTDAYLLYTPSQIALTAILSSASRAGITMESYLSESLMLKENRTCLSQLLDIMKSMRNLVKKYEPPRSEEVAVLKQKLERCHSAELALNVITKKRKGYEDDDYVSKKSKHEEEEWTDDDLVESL
CDK7, sequence (P51948 whole entry partner, species assumed): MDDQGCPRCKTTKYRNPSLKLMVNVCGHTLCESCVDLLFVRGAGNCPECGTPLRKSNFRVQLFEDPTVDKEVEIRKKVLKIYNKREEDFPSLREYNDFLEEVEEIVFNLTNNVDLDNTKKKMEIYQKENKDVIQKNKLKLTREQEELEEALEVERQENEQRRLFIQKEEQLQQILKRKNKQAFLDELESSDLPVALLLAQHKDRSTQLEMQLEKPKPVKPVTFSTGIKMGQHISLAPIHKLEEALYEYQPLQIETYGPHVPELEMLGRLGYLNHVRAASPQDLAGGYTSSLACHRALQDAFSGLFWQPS

For `CN1CCOCCOc2cc(Nc3ncc(F)c(-c4ccc(C(=O)NCC#N)cc4)n3)ccc2OCC1` [Example 16, N-(cyanomethyl)-4-(5-fluoro-2-((7-methyl-2,3,6,7,8,9-hexahydro-5H-benzo[b][1,4,7]trioxa[10]azacyclododecan-13-yl)amino)pyrimidin-4-yl)benzamide], the figures for the inhibition at 0.01 µM at JAK3, on TYK2 and at CDK7 (at 10 nM) were 40 to 79%, 40 to 79% and 25 to 39%, respectively. Further, the inhibition at 0.1 µM on JAK3, at TYK2 and on CDK7 was over 80% in each case. Also, on JAK3 (kinase activity assay, Table 3), the IC50 was under 50 nM.

For the compound `CN1CCOCCOc2cc(Nc3nc(-c4cnn(C(CC#N)C5CCCC5)c4)c4cc[nH]c4n3)ccc2OCC1` (stereo not drawn) [Example 26, 3-cyclopentyl-3-(4-(2-((7-methyl-2,3,6,7,8,9-hexahydro-5H-benzo[b][1,4,7]trioxa[10]azacyclododecan-13-yl)amino)-7H-pyrrolo[2,3-d]pytimidin-4-yl)-1H-pyrazol-1-yl)propionitrile], the inhibition at 0.01 µM at JAK3 and at TYK2 was over 80% throughout. The inhibition at 0.1 µM on JAK3 was over 80%; at TYK2, over 80%; on CDK7 it was 40 to 79%.
